From publication PMC3638593, “1,4-dihydroxy-2-naphthoic Acid Induces Apoptosis in Human Keratinocyte: Potential Application for Psoriasis Treatment” (Evidence-based Complementary and Alternative Medicine : eCAM, 2013)
Where “and” joins values, the source holds several entries; their conditions need not be identical. Equal entries are not always repeated. Where two headings read alike, the source gives them in different places.

How the values were obtained:
Assay type in all cases: cell-based, human
[1] = tested on: cell cycle related proteins in HaCaT cells; assay: Western blot of cell cycle related proteins; settings: 12 h
Procedure: After DHNA treatment HaCaT cells were collected and lysed in CelLytic M Mammalian Cell Lysis/Extraction Reagent with freshly added Protease Inhibitor Cocktail for 30 min at 4°C. Cell lysate was centrifuged at 15000 g for 15 min at 4°C and supernatant was collected as whole cell lysate. Protein concentration was determined by Bio-Rad protein assay dye reagent concentrate (Bio-Rad Laboratories, Hercules, CA, USA) following the manufacturer's instructions. Whole cell lysate was denatured by boiling for 5 min in 6X SDS loading buffer (0.375 M Tris [pH 6.8], 30% glycerol, 12% SDS, 0.2% bromophenol blue and 12% β-mercaptoethanol). Equal amount of protein (10–20 μg) was then separated by 12–15% SDS-PAGE and later proteins were transferred to polyvinylidene difluoride membrane (Millipore, Billerica, MA, USA) using Trans-Blot SD semidry transfer cell (Bio-Rad Laboratories). After that, membranes were blocked with 2–5% (w/v) bovine serum albumin or nonfat dry milk in Tris-buffered Saline-Tween (TBS-T; 0.05% v/v Tween-20, 10 mM Tris [pH 7.4], 150 mM NaCl) for 1 h and subsequently incubated overnight at 4°C with different primary antibodies in TBS-T. Membrane was then washed using TBS-T and followed by incubation with corresponding horseradish peroxidase labeled second antibodies (Santa Cruz Biotechnology) in TBS-T for 1 h. After washing of membrane with TBS-T, protein bands were visualized using Immobilon Western Chemiluminescent HRP Substrate (Millipore) and autoradiography with Lumi-Film Chemiluminescent Detection Film (Roche Applied Science). Equal protein loading was monitored by β-actin antibody on the same membrane.

HaCaT cells [2] = assay: Proliferation assay (sulphorhodamine B) on HaCaT; settings: for IC50: Homo sapiens, read-out: IC50 on growth
Text: The spontaneously immortalized human epidermal keratinocyte HaCaT cells were purchased from China Centre for Type Culture Collection, Wuhan, China. The human foreskin fibroblast Hs-68 cells were purchased from the American Type Culture Collection (Manassas, VA, USA). The human undifferentiated keratinocyte NCTC 2544 cells were provided by Interlab Cell Line Collection (Genoa, Italy) and the immortalized human epidermal melanocyte PIG1 cells were a gift from Dr Caroline Le Poole (Loyola University Chicago, Maywood, IL, USA). HaCaT and Hs-68 cells were maintained in DMEM, NCTC 2544 in RPMI 1640 and PIG1 cells in Medium 254 with Human Melanocyte Growth Supplement-2, respectively. All cells were cultured in complete medium containing 10% FBS, 100 μg/mL of streptomycin, and 100 U/mL of penicillin (Gibco Laboratories) at 37°C in a humidified atmosphere of 5% CO2. Cell culture experiments were carried out at 60–80% confluent.
The ethyl acetate extract (EA) of Rubia cordifolia L. was isolated as described. 1,4-dihydroxy-2-naphthoic acid (98%), dithranol (≥90%), and EA were dissolved in DMSO as stock. All cells were seeded and treated with various concentrations of DHNA, dithranol or EA. After treatment, cells were fixed with cold 50% trichloroacetic acid and incubated 1 h at 4°C. Cell was then washed with deionized water, air-dried, and stained with 0.4% (w/v) sulphorhodamine B for 30 min at room temperature. Unincorporated dye was removed with 1% acetic acid wash and the cell was again air-dried. Incorporated dye was then solubilized in 10 mM Tris base and absorbance was measured at 565/690 nm using a Sunrise microplate spectrophotometer (Tecan, Switzerland). IC50 were determined using GraphPad Prism 5.0 (GraphPad Software, San Diego, CA, USA).

HaCaT cells [3] = assay: TUNEL assay, flow cytometry; settings: 24 h
Procedure: After DHNA treatment, HaCaT cells were collected and washed and subsequent steps were following the protocol of In Situ Cell Death Detection kit, Fluorescein (Roche Applied Science). Fluorescein-labeled DNA strand breaks were detected by flow cytometry. The percentage of hypodiploid (fragmented) nuclei reflecting relative proportion of apoptotic cells was analyzed by WinMDI 2.9.

[4] = tested on: AIF and endoG in HaCaT cells; assay: Immunofluorescence staining of AIF and endoG; settings: 240 μM (49.01 μg/mL), 24 h
Procedure: HaCaT cells were first seeded on cover-slipped 6 well plates. After DHNA treatment, cells were washed three times with PBS and fixed in 1 : 1 acetone/methanol at −20°C for 10 min. Thereafter, cells were washed with PBS three times and then blocked for 15 min in blocking solution (1% BSA in PBS) at room temperature. After that, cells were incubated with either one of the following antibodies in blocking solution overnight at 4°C: apoptosis inducing factor, AIF or endonuclease G, and endoG. Cells were then washed with PBS three times and incubated with corresponding secondary antibody conjugated to Alexa Fluor 488 (Molecular Probes) in blocking solution in dark at room temperature for 1 h. After further washing with PBS for three times, the cover slips were then mounted on glass slides using the Vectashield mounting medium with DAPI (Vector Laboratories, Burlingame, CA). Stained cells were then visualized under the Nikon Ti-E inverted microscope (Nikon, Tokyo, Japan).

HaCaT cells [5] = assay: JC-1 staining, mitochondrial membrane potential
Procedure: After DHNA treatment, HaCaT cells were harvested and washed with PBS. Cells were then incubated in 1.5 μM JC-1 (5,5′,6,6′-tetrachloro-1,1′,3,3′-tetraethylbenzimidazolylcarbocyanine iodide, Molecular Probes) in PBS at 37°C for 15 min in the dark. Thereafter cells were washed, resuspended in PBS and then immediately analyzed on the FACSCanto flow cytometer. If mitochondrial membrane potential (MMP) depolarizes, JC-1 becomes a monomer and emits green fluorescence; when MMP polarizes, JC-1 becomes a polymer and emits red fluorescence. It indicates mitochondria depolarization by a decrease in red/green fluorescence intensity ratio.

HaCaT cells [6] = assay: DNA fragmentation, Cell Death Detection ELISAplus; settings: 240 μM (49.01 μg/mL)
Procedure: After incubation of HaCaT cells with DHNA, subsequent experimental steps were following the protocol of the Cell Death Detection ELISA^plus (Roche Applied Science, Basel, Switzerland). Absorbance was measured at 405/490 nm by the Sunrise microplate spectrophotometer. Enrichment of mono- and oligonucleosomes (cytoplasmic histone-associated DNA fragments) into the cytoplasm was calculated as absorbance of treatment cells/absorbance of control (enrichment factor) which was used as a parameter of apoptosis.

O=C(O)c1cc(O)c2ccccc2c1O [DHNA, 1,4-dihydroxy-2-naphthoic acid]
active form of Cdk2 (Thr160 phosphorylated, 33 kDa) ([1]; 240 μM (49.01 μg/mL)): no visible change | inactive form of Cdk2 (Thr14 and Tyr15 phosphorylated, 34 kDa) ([1]; 240 μM (49.01 μg/mL)): increased | level of Cyclin A/D1/D3 and Cdk4 ([1]; 240 μM (49.01 μg/mL)): decreasing | expression level of p27 and Cdk6 [1]: remains unchanged | expression of cyclin dependent kinase inhibitor p21 [1]: dose-dependent increase | IC50 (HaCaT cells [2]; incubation 48 h): 111 µM and 22.8 µg/mL | IC50 (HaCaT cells [2]; incubation 72 h): 38.9 µM and 7.95 µg/mL | less potent than dithranol in inhibiting keratinocytes growth (HaCaT cells [2]; compared with dithranol): ~ 4 times | TUNEL positive cells (HaCaT cells [3]; 30 μM/6.13 μg/mL): 15.8% | TUNEL positive cells (HaCaT cells [3]; 240 μM/49.01 μg/mL): 92.7% | localization of AIF and endoG [4]: translocated to the nucleus | MMP (red/green JC-1 fluorescence ratio) compared with vehicle control (HaCaT cells [5]; 30 μM/6.13 μg/mL, 24 h): 103.3% | MMP (red/green JC-1 fluorescence ratio) compared with vehicle control (HaCaT cells [5]; 30 μM/6.13 μg/mL, 48 h): 95.5% | MMP (red/green JC-1 fluorescence ratio) compared with vehicle control (HaCaT cells [5]; 240 μM/49.01 μg/mL, 24 h): 35.4% | MMP (red/green JC-1 fluorescence ratio) compared with vehicle control (HaCaT cells [5]; 240 μM/49.01 μg/mL, 48 h): 29.2% | increase of DNA fragmentation compared with vehicle control (HaCaT cells [6]; 24 h): approximately 3.4 folds | increase of DNA fragmentation compared with vehicle control (HaCaT cells [6]; 48 h): ~5.2 folds
